What was measured:
[1] = Inhibition of rifamycin-resistant Mycobacterium tuberculosis RNA polymerase H445Y mutant after 10 mins by rolling circle transcription assay in presence of DNA nanocircle template NC45
[2] = Inhibition of rifamycin-resistant Mycobacterium tuberculosis RNA polymerase D435V mutant after 10 mins by rolling circle transcription assay in presence of DNA nanocircle template NC45
[3] = Inhibition of rifamycin-resistant Mycobacterium tuberculosis RNA polymerase S450L mutant after 10 mins by rolling circle transcription assay in presence of DNA nanocircle template NC45

Structure (SMILES): CO[C@H]1/C=C/O[C@@]2(C)Oc3c(C)c(O)c4c(O)c(c(/C=N/N5CCN(C)CC5)c(O)c4c3C2=O)NC(=O)/C(C)=C\C=C\[C@H](C)[C@H](O)[C@@H](C)[C@@H](O)[C@@H](C)[C@H](OC(C)=O)[C@@H]1C [RIFAMPIN]
- IC50 [1]: 610 µM
- IC50 [2]: 465 µM
- IC50 [3]: 109 µM

Reference: ChEMBL document CHEMBL2380284, “X-ray crystal structures of the Escherichia coli RNA polymerase in complex with benzoxazinorifamycins” (J Med Chem, 2013)
